Results from the supplement of paper PMC9912026.

Tested on: A375_aEGFR2
Test: pERK immunofluorescence normalised to no-drug reference (=1); higher = more ERK phosphorylation (less pathway inhibition)
Settings: drug treatment time 24 h, EGF time 8 h
Procedure: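 A375 CRISPRa-EGFR (A375_aEGFR2) or HT29 cells were treated with two-drug dose combinations (vemurafenib, LY3009120, cobimetinib) for 24 h, then stimulated with EGF (100 ng/mL) or mock medium for 8 h. pERK (T202/Y204) was measured by immunofluorescence as the cytosolic population average, normalised to an untreated no-drug reference of the block (=1). Averages of 2 technical replicates. A375 in 5% FBS, HT29 in 10% FBS.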

CNc1ncc2cc(-c3cc(NC(=O)NCCC(C)(C)C)c(F)cc3C)c(C)nc2n1 + O=C(c1ccc(F)c(F)c1Nc1ccc(I)cc1F)N1CC(O)([C@@H]2CCCCN2)C1 [Cobimetinib]
pERK immunofluorescence normalised
Settings | EGF 0 ng/mL | EGF 100 ng/mL
drug A concentration 0 µM, drug B concentration 31.62 pM | 1.06 | 0.985
drug A concentration 0 µM, drug B concentration 0.0001 µM | 1.04 | 0.985
drug A concentration 0 µM, drug B concentration 0.000316228 µM | 1.08 | 0.976
drug A concentration 0 µM, drug B concentration 0.001 µM | 0.997 | 0.964
drug A concentration 0 µM, drug B concentration 0.00316228 µM | 0.841 | 0.85
drug A concentration 0 µM, drug B concentration 0.01 µM | 0.546 | 0.726
drug A concentration 0 µM, drug B concentration 0.0316228 µM | 0.29 | 0.564
drug A concentration 0 µM, drug B concentration 0.1 µM | 0.243 | 0.541
drug A concentration 0 µM, drug B concentration 0.316228 µM | 0.235 | 0.428
drug A concentration 0 µM, drug B concentration 1 µM | 0.235 | 0.278
drug A concentration 0.0001 µM, drug B concentration 0 µM | 1.07 | 0.987
drug A concentration 0.0001 µM, drug B concentration 31.62 pM | 0.993 | 0.987
drug A concentration 0.0001 µM, drug B concentration 0.0001 µM | 1.05 | 1.01
drug A concentration 0.0001 µM, drug B concentration 0.000316228 µM | 1.01 | 0.946
drug A concentration 0.0001 µM, drug B concentration 0.001 µM | 0.966 | 0.944
drug A concentration 0.0001 µM, drug B concentration 0.00316228 µM | 0.816 | 0.848
drug A concentration 0.0001 µM, drug B concentration 0.01 µM | 0.498 | 0.692
drug A concentration 0.0001 µM, drug B concentration 0.0316228 µM | 0.284 | 0.606
drug A concentration 0.0001 µM, drug B concentration 0.1 µM | 0.242 | 0.545
drug A concentration 0.0001 µM, drug B concentration 0.316228 µM | 0.234 | 0.416
drug A concentration 0.0001 µM, drug B concentration 1 µM | 0.233 | 0.259
drug A concentration 0.000316228 µM, drug B concentration 0 µM | 1.05 | 1.03
drug A concentration 0.000316228 µM, drug B concentration 31.62 pM | 0.999 | 1.03
drug A concentration 0.000316228 µM, drug B concentration 0.0001 µM | 1.02 | 1.03
drug A concentration 0.000316228 µM, drug B concentration 0.000316228 µM | 1.01 | 0.998
drug A concentration 0.000316228 µM, drug B concentration 0.001 µM | 0.945 | 0.935
drug A concentration 0.000316228 µM, drug B concentration 0.00316228 µM | 0.829 | 0.882
drug A concentration 0.000316228 µM, drug B concentration 0.01 µM | 0.517 | 0.722
drug A concentration 0.000316228 µM, drug B concentration 0.0316228 µM | 0.298 | 0.611
drug A concentration 0.000316228 µM, drug B concentration 0.1 µM | 0.245 | 0.533
drug A concentration 0.000316228 µM, drug B concentration 0.316228 µM | 0.233 | 0.352
drug A concentration 0.000316228 µM, drug B concentration 1 µM | 0.233 | 0.234
drug A concentration 0.001 µM, drug B concentration 0 µM | 1.02 | 1
drug A concentration 0.001 µM, drug B concentration 31.62 pM | 0.985 | 0.999
drug A concentration 0.001 µM, drug B concentration 0.0001 µM | 1 | 0.937
drug A concentration 0.001 µM, drug B concentration 0.000316228 µM | 1.02 | 0.923
drug A concentration 0.001 µM, drug B concentration 0.001 µM | 0.892 | 0.935
drug A concentration 0.001 µM, drug B concentration 0.00316228 µM | 0.807 | 0.832
drug A concentration 0.001 µM, drug B concentration 0.01 µM | 0.498 | 0.709
drug A concentration 0.001 µM, drug B concentration 0.0316228 µM | 0.288 | 0.558
drug A concentration 0.001 µM, drug B concentration 0.1 µM | 0.238 | 0.444
drug A concentration 0.001 µM, drug B concentration 0.316228 µM | 0.233 | 0.258
drug A concentration 0.001 µM, drug B concentration 1 µM | 0.232 | 0.218
drug A concentration 0.00316228 µM, drug B concentration 0 µM | 0.921 | 0.917
drug A concentration 0.00316228 µM, drug B concentration 31.62 pM | 0.894 | 0.899
drug A concentration 0.00316228 µM, drug B concentration 0.0001 µM | 0.938 | 0.957
drug A concentration 0.00316228 µM, drug B concentration 0.000316228 µM | 0.912 | 0.905
drug A concentration 0.00316228 µM, drug B concentration 0.001 µM | 0.817 | 0.849
drug A concentration 0.00316228 µM, drug B concentration 0.00316228 µM | 0.675 | 0.753
drug A concentration 0.00316228 µM, drug B concentration 0.01 µM | 0.432 | 0.595
drug A concentration 0.00316228 µM, drug B concentration 0.0316228 µM | 0.275 | 0.439
drug A concentration 0.00316228 µM, drug B concentration 0.1 µM | 0.237 | 0.309
drug A concentration 0.00316228 µM, drug B concentration 0.316228 µM | 0.231 | 0.225
drug A concentration 0.00316228 µM, drug B concentration 1 µM | 0.232 | 0.214
drug A concentration 0.01 µM, drug B concentration 0 µM | 0.728 | 0.795
drug A concentration 0.01 µM, drug B concentration 31.62 pM | 0.777 | 0.778
drug A concentration 0.01 µM, drug B concentration 0.0001 µM | 0.787 | 0.8
drug A concentration 0.01 µM, drug B concentration 0.000316228 µM | 0.745 | 0.753
drug A concentration 0.01 µM, drug B concentration 0.001 µM | 0.613 | 0.674
drug A concentration 0.01 µM, drug B concentration 0.00316228 µM | 0.495 | 0.622
drug A concentration 0.01 µM, drug B concentration 0.01 µM | 0.31 | 0.454
drug A concentration 0.01 µM, drug B concentration 0.0316228 µM | 0.247 | 0.333
drug A concentration 0.01 µM, drug B concentration 0.1 µM | 0.24 | 0.245
drug A concentration 0.01 µM, drug B concentration 0.316228 µM | 0.231 | 0.216
drug A concentration 0.01 µM, drug B concentration 1 µM | 0.231 | 0.212
drug A concentration 0.0316228 µM, drug B concentration 0 µM | 0.503 | 0.601
drug A concentration 0.0316228 µM, drug B concentration 31.62 pM | 0.461 | 0.56
drug A concentration 0.0316228 µM, drug B concentration 0.0001 µM | 0.488 | 0.582
drug A concentration 0.0316228 µM, drug B concentration 0.000316228 µM | 0.466 | 0.546
drug A concentration 0.0316228 µM, drug B concentration 0.001 µM | 0.385 | 0.524
drug A concentration 0.0316228 µM, drug B concentration 0.00316228 µM | 0.314 | 0.441
drug A concentration 0.0316228 µM, drug B concentration 0.01 µM | 0.258 | 0.351
drug A concentration 0.0316228 µM, drug B concentration 0.0316228 µM | 0.239 | 0.263
drug A concentration 0.0316228 µM, drug B concentration 0.1 µM | 0.234 | 0.223
drug A concentration 0.0316228 µM, drug B concentration 0.316228 µM | 0.231 | 0.212
drug A concentration 0.0316228 µM, drug B concentration 1 µM | 0.231 | 0.218
drug A concentration 0.1 µM, drug B concentration 0 µM | 0.301 | 0.436
drug A concentration 0.1 µM, drug B concentration 31.62 pM | 0.293 | 0.419
drug A concentration 0.1 µM, drug B concentration 0.0001 µM | 0.302 | 0.422
drug A concentration 0.1 µM, drug B concentration 0.000316228 µM | 0.286 | 0.399
drug A concentration 0.1 µM, drug B concentration 0.001 µM | 0.273 | 0.373
drug A concentration 0.1 µM, drug B concentration 0.00316228 µM | 0.251 | 0.347
drug A concentration 0.1 µM, drug B concentration 0.01 µM | 0.238 | 0.281
drug A concentration 0.1 µM, drug B concentration 0.0316228 µM | 0.232 | 0.233
drug A concentration 0.1 µM, drug B concentration 0.1 µM | 0.231 | 0.215
drug A concentration 0.1 µM, drug B concentration 0.316228 µM | 0.23 | 0.211
drug A concentration 0.1 µM, drug B concentration 1 µM | 0.231 | 0.211
drug A concentration 0.316228 µM, drug B concentration 0 µM | 0.246 | 0.336
drug A concentration 0.316228 µM, drug B concentration 31.62 pM | 0.248 | 0.325
drug A concentration 0.316228 µM, drug B concentration 0.0001 µM | 0.25 | 0.339
drug A concentration 0.316228 µM, drug B concentration 0.000316228 µM | 0.246 | 0.317
drug A concentration 0.316228 µM, drug B concentration 0.001 µM | 0.245 | 0.298
drug A concentration 0.316228 µM, drug B concentration 0.00316228 µM | 0.238 | 0.272
drug A concentration 0.316228 µM, drug B concentration 0.01 µM | 0.235 | 0.234
drug A concentration 0.316228 µM, drug B concentration 0.0316228 µM | 0.232 | 0.216
drug A concentration 0.316228 µM, drug B concentration 0.1 µM | 0.232 | 0.211
drug A concentration 0.316228 µM, drug B concentration 0.316228 µM | 0.23 | 0.211
drug A concentration 0.316228 µM, drug B concentration 1 µM | 0.231 | 0.212
drug A concentration 1 µM, drug B concentration 0 µM | 0.239 | 0.26
drug A concentration 1 µM, drug B concentration 31.62 pM | 0.24 | 0.254
drug A concentration 1 µM, drug B concentration 0.0001 µM | 0.248 | 0.252
drug A concentration 1 µM, drug B concentration 0.000316228 µM | 0.238 | 0.246
drug A concentration 1 µM, drug B concentration 0.001 µM | 0.237 | 0.242
drug A concentration 1 µM, drug B concentration 0.00316228 µM | 0.236 | 0.246
drug A concentration 1 µM, drug B concentration 0.01 µM | 0.235 | 0.217
drug A concentration 1 µM, drug B concentration 0.0316228 µM | 0.233 | 0.223
drug A concentration 1 µM, drug B concentration 0.1 µM | 0.234 | 0.212
drug A concentration 1 µM, drug B concentration 0.316228 µM | 0.233 | 0.21
drug A concentration 1 µM, drug B concentration 1 µM | 0.234 | 0.217
drug A concentration 3.16228 µM, drug B concentration 0 µM | 0.245 | 0.227
drug A concentration 3.16228 µM, drug B concentration 31.62 pM | 0.243 | 0.224
drug A concentration 3.16228 µM, drug B concentration 0.0001 µM | 0.243 | 0.224
drug A concentration 3.16228 µM, drug B concentration 0.000316228 µM | 0.242 | 0.228
drug A concentration 3.16228 µM, drug B concentration 0.001 µM | 0.241 | 0.219
drug A concentration 3.16228 µM, drug B concentration 0.00316228 µM | 0.24 | 0.215
drug A concentration 3.16228 µM, drug B concentration 0.01 µM | 0.237 | 0.214
drug A concentration 3.16228 µM, drug B concentration 0.0316228 µM | 0.239 | 0.214
drug A concentration 3.16228 µM, drug B concentration 0.1 µM | 0.238 | 0.218
drug A concentration 3.16228 µM, drug B concentration 0.316228 µM | 0.238 | 0.213
drug A concentration 3.16228 µM, drug B concentration 1 µM | 0.239 | 0.215
